Patent US20020151568A1, “Piperidinylethyl-, phenoxyethyl-, and beta-fluorophenethyl-substituted thiourea compounds with potent anti-HIV activity” (priority 2000, published 2002)
Where two headings read alike, the source gives them in different places.

What was measured:
HIV-1 strain HTLVIIIB = assay: Inhibition of HIV-1 HTLVIIIB replication in PBMC (p24 antigen EIA); type: cell-based; details: HIV-1 strain HTLVIIIB in human PBMC, p24 EIA on 7th day after infection; for IC50: read-out: IC50 [HTL VIIIB]
Method: The cells were then infected with virus at a multiplicity of infection (MOI) of 0.1 during a one-hour adsorption period at 37° C. in a humidified 5% CO2 atmosphere. Subsequently, cells were cultured in 96-well microplates (100 μL/well; 2×10^6 cells/mL, triplicate wells) in the presence of various inhibitor concentrations. […] Ag. […] The applied p24 EIA was the unmodified kinetic assay commercially available from Coulter Corporation/Immunotech, Inc. (Westbrook, Me.).
To test the therapeutic activity of the compounds of the invention, p24 assays were utilized as previously described. […] 1 during a one-hour adsorption period at 37° C. in a humidified 5% CO2 atmosphere. Subsequently, cells were cultured in 96-well microliter plates ([…]; 2×10^6 cells/mL, triplicate wells) in the presence of various inhibitor concentrations. Aliquots of culture supernatants were removed from the wells on the 7th day after infection for p24 antigen p24 enzyme immunoassays (EIA).
The applied p24 EIA was the unmodified kinetic assay commercially available from Coulter Corporation/Immunotech, Inc. (Westbrooke, Me.), which utilizes a murine monoclonal antibody to HIV core protein coated onto microwell strips to which the antigen present in the test culture supernatant samples binds. Percent inhibition of viral replication was calculated by comparing the p24 values from the test substance treated infected cells with p24 values from untreated infected cells (i.e., virus controls).

HIV-1 strain A17 (Y181C) = assay: Inhibition of replication of NNI-resistant HIV-1 strain A17 in PBMC; type: cell-based; details: for IC50: read-out: IC50 A17 (Y181C)
Method: (§1) The ability of Compounds 4 (HI-516), 11 (HI-566), and 12 (HI-565) to inhibit the replication of NNI-resistant HIV-1 strains, A17 (Y181C) and RT-MDR (V106A), was analyzed. The anti-HIV activity of the compounds was measured by determining their ability to inhibit the replication of HIV-1 strains A17 in PBMC from healthy volunteer donors and RT-MDR in H9 cells.
(§2) Compounds 4, 11, and 12 were compared with nevirapine or delavirdine, two known non-nucleoside reverse transcriptase inhibitors of HIV-1 RT.

[1] = test system: human peripheral blood mononuclear cells (PBMC); assay: Microculture Tetrazolium Assay (MTA, XTT) for cell viability of non-infected PBMC; type: cell-based; details: 7 days, read-out: CC (cytotoxic concentration, CC50)
Method: In parallel, the effects of various treatments on cell viability were also examined, as described in Enrice et.al., supra. In brief, non-infected PBNWC were treated with each compound for 7 days under identical experimental conditions. A Microculture Tetrazolium Assay (MTA), using 2,3-bis(2-methoxy-4nitro-5-sulfophenyl)-5-[(phenylarnino)-carbonyl]-2H-tetrazolium hydroxide (XTT), was performed to quantitate cellular proliferation.

[2] = test system: HIV-1 strain RT-MDR (V106A); assay: Inhibition of replication of NNI-resistant HIV-1 strain RT-MDR in H9 cells; type: cell-based
Method: as §1, §2

[3] = A17 in PBMC from healthy volunteer donors
[4] = RT-MDR in H9 cells, read-out: IC50 RT-MDR (V106A)
[5] = Human immunodeficiency virus 1, PBMC
[6] = Human immunodeficiency virus 1, H9, read-out: IC50 RT-MDR (V106A)

SMILES: S=C(NCCN1CCCCC1)Nc1ccccn1 [Compound 1]
- IC50 (HIV-1 strain HTLVIIIB): > 100000 nM

SMILES: S=C(NCCN1CCCCC1)Nc1ccc(Br)cn1 [Compound 2, N-[2-(1-piperidinylethyl)]-N′-[2-(5-bromopyridyl)]-thiourea]
- IC50 [HTL VIIIB] (HIV-1 strain HTLVIIIB): nanomolar concentrations
- IC50 (HIV-1 strain HTLVIIIB): 2 nM

SMILES: CC1CCCN(CCNC(=S)Nc2ccc(Br)cn2)C1 (stereo not drawn) [Compound 3, N-[2-(3-methylpiperidinylethyl)]-N′-[2-(5-bromopyridyl)]-thiourea]
- IC50 (HIV-1 strain HTLVIIIB): 80 nM

SMILES: CC1CCCCN1CCNC(=S)Nc1ccc(Br)cn1 (stereo not drawn) [Compound 4, N-[2-(2-methylpiperidinylethyl)]-N′-[2-(5-bromopyridyl)]-thiourea]
- IC50 A17 (Y181C) (HIV-1 strain A17 (Y181C); [3]): not active
- IC50 (HIV-1 strain A17 (Y181C); [3]): > 100000 nM
- IC50 (HIV-1 strain HTLVIIIB): < 1 nM
- CC50 [1]: 50000 nM
- IC50 RT-MDR (V106A) ([2]; RT-MDR in H9 cells): less active than nevirapine or delavirdine
- IC50 [2, 4]: 1900 nM

SMILES: S=C(NCCN1CCCCC1)Nc1ccc(Cl)cn1 [Compound 5, N-[2-(1-piperidinylethyl)]-N′-[2-(5-chloropyridyl)]-thiourea]
- IC50 [HTL VIIIB] (HIV-1 strain HTLVIIIB): nanomolar concentrations
- IC50 (HIV-1 strain HTLVIIIB): 1 nM

SMILES: CC1CCCN(CCNC(=S)Nc2ccc(Cl)cn2)C1 (stereo not drawn) [Compound 6, N-[2-(3-methylpiperidinylethyl)]-N′-[2-(5-chloropyridyl)]-thiourea]
- IC50 (HIV-1 strain HTLVIIIB): 20 nM

SMILES: CC1CCCCN1CCCNC(=S)Nc1ccc(Cl)cn1 (stereo not drawn) [Compound 7, N-[3-(2-methylpiperidinylpropyl)]-N′-[2-(5-chloropyridyl)]-thiourea]
- IC50 (HIV-1 strain HTLVIIIB; Human immunodeficiency virus 1): 1 nM
- melting point: 117 to 118 °C

SMILES: S=C(NCCOc1ccccc1)Nc1ccccn1 [Compound 8, N-[2-(Phenoxy)ethyl]-N′-[2-(pyridyl)]thiourea]
- IC50 (HIV-1 strain HTLVIIIB): 5 nM
- CC50 [1]: 55000 nM

SMILES: S=C(NCCOc1ccccc1)Nc1ccc(Cl)cn1 [Compound 9, N-[2-(Phenoxy)ethyl]-N′-[2-(5-chloropyridyl)]thiourea]
- IC50 (HIV-1 strain HTLVIIIB): 4 nM
- CC50 [1]: > 100000 nM

SMILES: S=C(NCCOc1ccccc1)Nc1ccc(Br)cn1 [Compound 10, N-[2-(Phenoxy)ethyl]-N′-[2-(5-bromopyridyl)] thiourea]
- IC50 (HIV-1 strain HTLVIIIB): 5 nM
- CC50 [1]: 92000 nM

SMILES: FC(CNC(=S)Nc1ccc(Cl)cn1)c1ccccc1 (stereo not drawn) [Compound 11, β-Fluoro[2-phenethyl]-N′-[2-(5-chloropyridyl)] thiourea]
- IC50 (HIV-1 strain A17 (Y181C); [3]): 100 nM
- IC50 [HTL VIIIB] (HIV-1 strain HTLVIIIB): subnanomolar
- IC50 (HIV-1 strain HTLVIIIB): < 1 nM
- CC50 [1]: 30000 nM
- IC50 RT-MDR (V106A) ([2]; RT-MDR in H9 cells): submicromolar
- IC50 [2, 4]: 100 nM

SMILES: FC(CNC(=S)Nc1ccc(Br)cn1)c1ccccc1 (stereo not drawn) [Compound 12, β-Fluoro[2-phenethyl]-N′-[2-(5-bromopyridyl)]thiourea]
- IC50 (HIV-1 strain A17 (Y181C); [3]): 100 nM
- IC50 [HTL VIIIB] (HIV-1 strain HTLVIIIB): subnanomolar
- IC50 (HIV-1 strain HTLVIIIB): < 1 nM
- CC50 [1]: 50000 nM
- IC50 RT-MDR (V106A) ([2]; RT-MDR in H9 cells): submicromolar
- IC50 [2, 4]: 200 nM

SMILES: CC(C)Nc1cccnc1N1CCN(C(=O)c2cc3cc(NS(C)(=O)=O)ccc3[nH]2)CC1 [Delavirdine, reference compound]
- IC50 (HIV-1 strain A17 (Y181C); [5]): 50000 nM
- IC50 [2, 6]: 400 nM

SMILES: Cc1ccnc2c1NC(=O)c1cccnc1N2C1CC1 [Nevirapine, reference compound]
- IC50 (HIV-1 strain A17 (Y181C); [5]): 21400 nM
- IC50 [2, 6]: 1400 nM

SMILES: S=C(NCCc1ccccn1)Nc1ccc(Br)cn1 [Trovirdine, reference compound]
- IC50 (HIV-1 strain HTLVIIIB): 7 nM
- CC50 [1]: 100000 nM
